Experimental data taken from patent publication US5304551A, “Anti-fungal compounds” (British Technology Group Limited, priority 1990, dated 1994).
≈ marks a conversion by molar mass, not a printed value.

Columns and labels:
Type in all cases: cell-based
[1] = test system: Candida albicans NCYC 597; test: Antifungal activity, agar plate disc zone of inhibition, approximate MIC, Candida albicans; settings: NCYC597, C. albicans, compound in dimethyl sulphoxide, 13 mm discs on nutrient agar, 24h and 48h incubation, read-out: MICs, C. albicans
Description: (§1) Candida albicans NCYC 597; Trichophyton mentagrophytes NCPF 224 and Microsporum audounii NCPF 638 were used throughout as test organisms. These are open deposits at the National Collection of Yeast Cultures, Norwich UK and the National Collection of Pathogenic Fungi of the Commonwealth Mycological Institute, Kew UK.
(§2) All organisms were maintained in a nutrient broth containing (gl^-1): Lab Lemco (Oxoid), 5; Peptone (Oxoid), 5; NaCl, 10. Cultures for testing antimicrobial activity were grown in this medium for 18h prior to use. Solidified media were prepared by the addition of Agar (Oxoid No. 3) 1.5% w/v.
(§3) Antifungal activity was estimated using solutions of the compound (as the free acid) in dimethyl sulphoxide. A range of concentrations was used for each compound to permit calculation of an approximate MIC. 13 mm discs (Whatman) were soaked in a solution of the appropriate dilution, either allowed to dry, or placed directly onto the surface of nutrient agar plates seeded with the required test organism.
(§4) After 24h incubation the diameters of zones of inhibition were measured. After a further 24h incubation, the plates were re-examined and zones re-measured.

[2] = test system: Trichophyton mentagrophytes NCPF 224; test: Antifungal activity, agar plate disc zone of inhibition, approximate MIC, Trichophyton mentagrophytes; settings: for MIC: Trichophyton mentagrophytes, NCPF224, approximate MIC, compound in dimethyl sulphoxide, 13 mm discs on nutrient agar, 24h and 48h incubation, read-out: MICs, T. ment.; for activity against the athlete's foot organism (in words): athlete's foot and ringworm organisms
Description: as §1, §2, §3, §4

[3] = test system: Microsporum audounii NCPF 638; test: Antifungal activity, agar plate disc zone of inhibition, approximate MIC, Microsporum audounii; settings: for MIC: Microsporum, NCPF638, M. audounii, approximate MIC, compound in dimethyl sulphoxide, 13 mm discs on nutrient agar, 24h and 48h incubation; for activity against the ringworm organism (in words): athlete's foot and ringworm organisms
Description: as §1, §2, §3, §4

| SMILES | MIC [1] [µg/mL] | MICs, T. ment. (result in words) ([2]; T. mentagrophytes, no MIC / no activity) | MIC [3] [µg/mL] | MIC ([2]; T. mentagrophytes) [µg/mL] | activity against the athlete's foot organism (in words) [2] | activity against the ringworm organism (in words) [3] |
| --- | --- | --- | --- | --- | --- | --- |
| C[C@H](CCCCO)[C@H]1CC[C@H]2[C@@H]3[C@H](O)C[C@@H]4C[C@H](O)CC[C@]4(C)[C@H]3CC[C@]12C [chenodeoxycholic, Z = CH2 OH, 3α,7α,25-trihydroxy-25-homo-5β-cholane] | 110 (≈ 280 µM) | NONE | 270 (≈ 688 µM) |  |  |  |
| C[C@H](CCCO)[C@H]1CC[C@H]2[C@@H]3[C@H](O)C[C@@H]4C[C@H](O)CC[C@]4(C)[C@H]3CC[C@]12C [chenodeoxycholic, Z = OH, 3α,7α,24-trihydroxy-5β-cholane] | 7000 (≈ 18500 µM) |  | 50 (≈ 132 µM) | 30 (≈ 79.2 µM) |  |  |
| C[C@H](CCCCO)[C@H]1CC[C@H]2[C@@H]3[C@H](O)C[C@@H]4C[C@H](O)CC[C@]4(C)[C@H]3C[C@H](O)[C@]12C [cholic, Z = CH2 OH, 3α,7α,12α,25-tetrahydroxy-25-homo-5β-cholane] | 450 (≈ 1100 µM) |  | 20 to 50 (≈ 48.9 to 122 µM) | 100 (≈ 245 µM) |  |  |
| C[C@H](CCCO)[C@H]1CC[C@H]2[C@@H]3[C@H](O)C[C@@H]4C[C@H](O)CC[C@]4(C)[C@H]3C[C@H](O)[C@]12C [cholic, Z = OH, 3α,7α,12α,24-tetrahydroxy-5β-cholane] | 900 (≈ 2280 µM) |  | 3800 (≈ 9630 µM) | 1650 (≈ 4180 µM) |  |  |
| C[C@H](CCCCO)[C@H]1CC[C@H]2[C@@H]3CC[C@@H]4C[C@H](O)CC[C@]4(C)[C@H]3C[C@H](O)[C@]12C [deoxycholic, Z = CH2 OH, 3α,12α,25-trihydroxy-25-homo-5β-cholane] | 150 (≈ 382 µM) |  | 5 (≈ 12.7 µM) | 30 (≈ 76.4 µM) | outstanding | outstanding |
| C[C@H](CCCO)[C@H]1CC[C@H]2[C@@H]3CC[C@@H]4C[C@H](O)CC[C@]4(C)[C@H]3C[C@H](O)[C@]12C [deoxycholic, Z = OH, 3α,12α,24-trihydroxy-5β-cholane] | 730 (≈ 1930 µM) |  | 10 (≈ 26.4 µM) | 10 (≈ 26.4 µM) | outstanding | outstanding |
